From PubChem BioAssay (NCI) come the findings set out here.

Among the test systems are HCC-2998 colon; HCT-116 colon; HS 578T breast; LOX IMVI melanoma; MCF7 breast; MDA-MB-231 breast; NCI-H23 lung; RPMI-8226 leukemia; SNB-75 CNS; UACC-257 melanoma.
Holding throughout (assay): growth of human tumour cells (NCI), 48 h

Structures are written as SMILES.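 How tested: cells in 96-well plates exposed to compound for 48 hours at five concentrations. GI50: concentration for 50% inhibition of growth. TGI denotes the concentration required for complete inhibition of growth.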 Where only a bound is given, the exact number is not on record here.

Take `C=C1CC[C@@H]2[C@](C)(COC(C)=O)[C@H](OC(C)=O)CC[C@@]2(C)[C@@H]1CC(Sc1ccccc1)C1=CCOC1=O` (some centres not stated): the GI50 in the assay with HCC-2998 colon was 2.1 µM; in the assay on HCT-116 colon it was 0.854 µM; in the assay on HS 578T breast, 4.89 µM; in the assay on LOX IMVI melanoma, 0.297 µM; in the assay with MCF7 breast it was 0.538 µM; with MDA-MB-231 breast, 2.47 µM. For the same compound, the GI50 with NCI-H23 lung was 1.78 µM; in the assay on RPMI-8226 leukemia, 0.343 µM; in the assay with SNB-75 CNS, 1.3 µM; in the assay on UACC-257 melanoma, 1.91 µM. The TGI in the assay on HCC-2998 colon is 4.07 µM; in the assay with HCT-116 colon it was 2.18 µM; in the assay with HS 578T breast, 63.3 µM; in the assay with LOX IMVI melanoma, 1.19 µM; in the assay on MCF7 breast it was 2.35 µM; in the assay with MDA-MB-231 breast, 6.3 µM. Moreover, the TGI worked out at 3.67 µM in the assay with NCI-H23 lung, 2.73 µM with RPMI-8226 leukemia, 2.9 µM in the assay on SNB-75 CNS and 3.71 µM with UACC-257 melanoma.

For `C=C1C(=O)OC2CCN3CC=C(COC(=O)C(C)(O)C4(CO4)C1C)C23` (configuration not stated), the TGI with HCC-2998 colon, in the assay with HCT-116 colon, in the assay with HS 578T breast, in the assay with LOX IMVI melanoma, with MCF7 breast and with MDA-MB-231 breast was more than 100 µM in each case. Further, the TGI in the assay with NCI-H23 lung and in the assay on UACC-257 melanoma was more than 100 µM each time.

Turning to `O=C(Nc1nc2ccc(C(F)(F)F)cc2s1)c1cc(Cl)ccc1O`, the GI50 with HCC-2998 colon was 0.781 µM; in the assay on HCT-116 colon it was 0.414 µM; in the assay on HS 578T breast it was 1.23 µM; in the assay with LOX IMVI melanoma, 1.33 µM; in the assay on MCF7 breast, 2.18 µM; with MDA-MB-231 breast, 0.704 µM. For the same compound, the GI50 with NCI-H23 lung is 0.367 µM; in the assay with RPMI-8226 leukemia, 0.276 µM; in the assay with SNB-75 CNS it was 1.59 µM; with UACC-257 melanoma it was 0.646 µM. The TGI is 73.6 µM in the assay with HCC-2998 colon; 11 µM with HCT-116 colon; more than 100 µM in the assay with HS 578T breast; 15.8 µM in the assay with LOX IMVI melanoma; more than 100 µM in the assay with MCF7 breast; 3.75 µM in the assay on MDA-MB-231 breast. Further, the TGI with NCI-H23 lung turned out to be 9.53 µM; with RPMI-8226 leukemia, 2 µM; in the assay on SNB-75 CNS, 7.24 µM; with UACC-257 melanoma, 5.53 µM.

Regarding `COc1ccc(C(C)=O)cc1N1C(=O)C2C(C1=O)C1(c3ccccc3)C(=O)C2(c2ccccc2)C(c2ccc(C)cc2)=C1c1ccc(C)cc1` (configuration not stated), the GI50 with HCC-2998 colon is more than 100 µM; with HCT-116 colon, more than 100 µM; in the assay with HS 578T breast, more than 100 µM; in the assay on LOX IMVI melanoma, more than 100 µM; with MCF7 breast, more than 100 µM; in the assay on MDA-MB-231 breast it was 33.1 µM. The GI50 in the assay on NCI-H23 lung, in the assay with RPMI-8226 leukemia, in the assay on SNB-75 CNS and in the assay with UACC-257 melanoma was more than 100 µM throughout. Also, the TGI with HCC-2998 colon, with HCT-116 colon, in the assay on HS 578T breast, in the assay with LOX IMVI melanoma, in the assay on MCF7 breast and in the assay on MDA-MB-231 breast was more than 100 µM in each case. The TGI in the assay on NCI-H23 lung, in the assay on RPMI-8226 leukemia, in the assay with SNB-75 CNS and with UACC-257 melanoma was more than 100 µM in each case.

For `O=C1/C(=C/c2ccc(Br)cc2)COc2ccc(O)c(O)c21`, the GI50 with HCC-2998 colon was 1.54 µM; in the assay on HCT-116 colon it was 0.892 µM; with HS 578T breast, 1.54 µM; with LOX IMVI melanoma, 0.261 µM; in the assay on MCF7 breast, 0.353 µM; with MDA-MB-231 breast it was 0.682 µM. In addition, the GI50 is 1.62 µM in the assay with NCI-H23 lung, 0.221 µM in the assay with RPMI-8226 leukemia, 1.23 µM in the assay on SNB-75 CNS and 1.71 µM in the assay on UACC-257 melanoma. Also, the TGI was found to be 3.03 µM in the assay with HCC-2998 colon; 2.4 µM with HCT-116 colon; 6.77 µM in the assay with HS 578T breast; 0.807 µM in the assay with LOX IMVI melanoma; 1.67 µM in the assay with MCF7 breast; 2.27 µM in the assay with MDA-MB-231 breast. The TGI stood at 3.65 µM in the assay on NCI-H23 lung, 1.02 µM with RPMI-8226 leukemia, 3.01 µM with SNB-75 CNS and 6.78 µM in the assay with UACC-257 melanoma.

Take `CC(C)CCN1c2nc(Nc3cc(F)c(O)c(F)c3)ncc2N(C)C(=O)C1C` (configuration not stated): the GI50 is 3.54 µM in the assay with HCC-2998 colon; 4.37 µM in the assay with HCT-116 colon; 3.22 µM with HS 578T breast; 4.11 µM with LOX IMVI melanoma; 2.85 µM in the assay with MCF7 breast; 5.17 µM in the assay with MDA-MB-231 breast. Further, the GI50 in the assay on NCI-H23 lung is 5.27 µM; in the assay with RPMI-8226 leukemia, 2.82 µM; in the assay with SNB-75 CNS, 13.4 µM; in the assay with UACC-257 melanoma it was 17.1 µM. For the same compound, the TGI in the assay on HCC-2998 colon is 17.1 µM; in the assay on HCT-116 colon, 30.1 µM; in the assay on HS 578T breast, 32.1 µM; with LOX IMVI melanoma, 20.8 µM; in the assay on MCF7 breast it was 18.1 µM; in the assay with MDA-MB-231 breast, more than 100 µM. Moreover, the TGI is 67.8 µM in the assay with NCI-H23 lung, 11.5 µM with RPMI-8226 leukemia, 44.3 µM in the assay with SNB-75 CNS and more than 88.2 µM in the assay on UACC-257 melanoma.

Take `CS(=O)(=O)Nc1ccc2c(c1)oc(=O)c1ccccc12`: the TGI in the assay with HCC-2998 colon, with HCT-116 colon, with HS 578T breast, in the assay with LOX IMVI melanoma, in the assay on MCF7 breast and in the assay on MDA-MB-231 breast was more than 100 µM each time. The TGI with NCI-H23 lung, in the assay with RPMI-8226 leukemia, in the assay on SNB-75 CNS and in the assay on UACC-257 melanoma was more than 100 µM in each case.

Consider `NC(=O)NC1C(c2ccccc2)=C1c1ccccc1`, for which the TGI in the assay on HCC-2998 colon was 35.8 µM; in the assay with HCT-116 colon, 38.7 µM; in the assay with HS 578T breast, more than 100 µM; in the assay on LOX IMVI melanoma it was 38.4 µM; in the assay on MCF7 breast it was 33.6 µM; in the assay with MDA-MB-231 breast, 38.2 µM. Further, the TGI worked out at 61.4 µM in the assay on NCI-H23 lung, 45.4 µM in the assay on RPMI-8226 leukemia and 38.4 µM with UACC-257 melanoma.

With `Cn1nc(N)c2cc([C@@H]3Nc4ccc5[nH]ncc5c4[C@H]4C5CCC(C5)[C@@H]34)ccc21` (some centres not stated), the GI50 in the assay with HCC-2998 colon is 1.5 µM; with HCT-116 colon, 0.448 µM; with HS 578T breast, 0.373 µM; in the assay with LOX IMVI melanoma it was 0.515 µM; in the assay with MCF7 breast, 0.327 µM; in the assay with MDA-MB-231 breast it was 2.31 µM. For the same compound, the GI50 with NCI-H23 lung was 0.643 µM; with RPMI-8226 leukemia, 0.36 µM; in the assay on SNB-75 CNS, 0.152 µM; with UACC-257 melanoma, 15.9 µM. Besides, the TGI in the assay on HCC-2998 colon amounted to 13.4 µM; with HCT-116 colon it was 13.9 µM; in the assay on HS 578T breast, 43.4 µM; in the assay on LOX IMVI melanoma it was 15.7 µM; with MCF7 breast it was 18.4 µM; with MDA-MB-231 breast, 16.8 µM. Besides, the TGI is 17.4 µM in the assay on NCI-H23 lung, 3.69 µM in the assay on RPMI-8226 leukemia, 3.27 µM with SNB-75 CNS and 59.5 µM in the assay on UACC-257 melanoma.
